Measurements as given in patent EP0975351B1, “TREATMENT OF MULTIPLE SCLEROSIS THROUGH INGESTION OF COPOLYMER-1” (YEDA RESEARCH AND DEVELOPMENT CO. LTD., priority 1997, dated 1998).

Assays:
[1] = test system: rat spleen cell suspension stimulated with GPBP; assay: Proliferation assay of spleen cells in response to GPBP, fed rats; type: cell-based; conditions: spleen cells of orally fed rats, 10-11 days after EAE induction (Figure 1)
Description: Rats were immunized with 25 µg of GPBP emulsified 1:1 in CFA containing 4 mg/ml. H37Ra. The emulsion at a total volume of 0.1 ml. was injected into the two hindfoot pads.
Rats were fed with 1 mg GPBP or glatiramer acetate dissolved in PBS by gastric intubation using a sterile feeding tube (Uno Plast, Denmark). Rats were fed 5 times (total dose of 5 mg) before disease induction at intervals of 2-3 days. EAE was induced two days after the last feeding. Control mice and rats were mock fed with PBS.
Proliferation Assay - The proliferation response of spleen cells was tested 10-11 days after EAE induction as described above. Cells from 3 animals in each group were pooled and cultured in triplicate (5x10^5 mouse cells and 2x10^5 rat cells) in microtiter plates with various antigen concentrations (GPBP) in a final volume of 0.2ml. Microtiter plates contained RPMI 1640 (available from Sigma Biochemicals, St. Louis, Missouri) culture medium supplemented with 1% autologous serum. After 72 hr. of incubation, cells were pulsed with 1 µCi {^3H}-thymidine for 18 hr and then harvested onto filter papers and radioactivity was counted.

[2] = test system: spleen cell cultures derived from mice; assay: Cytokine secretion assay of spleen cells from fed mice (ELISA); type: cell-based; conditions: versus PBS fed control
Description: Induction and Assessment of EAE - Mice were injected with 200 µg GPBP emulsified in an equal volume of complete Freund's adjuvant (CFA) containing 4 mg/ml mycobacterium tuberculosis (H37Ra) (Difco Lab, Detroit, Mich.). The emulsion at a total volume of 0.1 ml was injected into all four footpads. Immediately after and 24 hours later, pertussis toxin (250ng/mouse) (Sigma) was injected intravenously.
Induction of Oral Tolerance - Mice were fed with 250 µg GPBP or glatiramer acetate dissolved in phosphate buffered saline (PBS) on days -7, -5, -3, 0, 2, 4 and 6 by gastric intubation with an 18-gauge stainless steel feeding needle (Thomas). EAE was induced on day 0.
Cytokine Secretion Assay - Spleens were removed 10-11 days after EAE induction and cells of 3 mice from each group were pooled. Cells (5x10^6/ml) were cultured in duplicates in 24 well plate in RPMI 1640 supplemented with 10% FCS (Fetal Calf Serum) in the presence or absence of antigen (GPBP 100 Fg/ml). Supematants were harvested after 24-40 hr of culture. Quantitative ELISA for IL-2, IFN-γ, IL-4, IL-6 and IL-10 were performed using paired mAbs specific for the corresponding cytokines (Pharmingen, La Jolla, CA) according to the manufacturer's instructions.

[3] = test system: T-cell line derived from spleens of glatiramer acetate fed rats; assay: Cytokine assay of T-cell line from spleens of fed rats (ELISA); type: cell-based; conditions: rat line cultured with glatiramer acetate as antigen (Figure 6)
Description: Isolation of glatiramer acetate specific T cell lines - Lewis rats were fed 5 times with 1 mg glatiramer acetate and (SJUJ x BALB/c)F, mice 7 times with 250 µg glatiramer acetate, at intervals of 2-3 days. Four to twelve days after the last feeding animals were sacrificed and their spleens removed.
Spleen cells of 3 animals were pooled and incubated (50 x 10^6/plate) with glatiramer acetate (500 µg) in medium containing 1 % autologous serum for 4 days. Every 14-21 days cells (4-6 x 10^6/plate) were restimulated by 3 days exposure to copolymer-1 (500 µg) presented on syngeneic irradiated (3000 rad) rat thymocytes (100 x 10^6/plate) or mouse splenocytes (50 x 10^6/plate). Stimulation was followed by propagation in 10% supernatant of Con A activated normal mouse spleen cells as T cell growth factor (TCGF).
Cytokine Assay - T cells of rat line (0.5 x 10^6/ml) were incubated with irradiated thymocytes (10 x 10^6) with or without the indicated antigen (50µg glatiramer acetate; 5µg Con A). Cells were cultured for 24 hours in RPMI 1640 supplemented with 10% FCS for IL-2, TNFα, IL-4 and IL-10-measurements and in serum free medium - DCCM-1 (Biological Industries, Kibbutz Beit Haemek, Israel) for 72 hours for TGFβ measurement.
Cytokine levels in supernatants were measured in a quantitative ELISA using pairs of monoclonal antibodies specific for the corresponding cytokines.

[4] = test system: CSF WBCs; assay: Flow cytometry of cerebral spinal fluid (CSF) cells; type: in vivo, Rhesus Monkeys
Description: 3 Rhesus monkeys were treated as follows: One monkey served as control and was fed with placebo capsules (containing 5mg glucose only). The second and third monkeys were fed with glatiramer acetate containing capsules at a dose of 1mg/feeding and 20mg/feeding, respectively. Animals were fed every other day for a total of 10 feedings: 5 times prior to disease induction (immunization on day 0) and then 5 times after immunization.
Disease was induced on day 0 by an intradermal injection of 8mg bovine - MBP and 3 mg H37Ra M. tuberculosis in FCA into the hind footpads, total injected volume between 0.1 and 0.15 ml per footpad. The animals were followed for clinical manifestations of EAE, a variety of serum and CSF immunological markers and spinal cord and cranial MRI's.
The Epics C flow cytometer was used to analyze both peripheral blood lymphocytes (PBL) and cerebral spinal fluid (CSF) collected from each monkey. The red blood cells were lysed and the remaining white blood cells (WBCs) were washed and stained using standard methods with appropriate reagents. Tables 3 and 4 below show the data from staining PBL and CSF WBCs from the three animals in this Example.

[5] = test system: EAE; assay: EAE in Rhesus monkeys, enteric-coated versus cracked coating capsules (Example 4); type: in vivo; conditions: for protection from the disease: Fig. 10
Description: Six monkeys were treated and subsequent analyses performed substantially according to the protocol described for Example 3 hereinabove.
Control placebo-fed animal 18746 was fed with capsules containing glucose. Animal 18586 was fed with 1 mg glatiramer acetate in capsules with cracked […]. Animal 18586 was fed with 1 mg glatiramer acetate in capsules with cracked enteric coating. Animal 18639 was fed with 20 mg glatiramer acetate in capsules with cracked enteric coating. […] Animal 18962 was fed with 20 mg glatiramer acetate in intact enteric coated capsules.
The schedule of feeding, disease induction and follow-up were substantially the same as those of Example 3 described hereinabove.

[6] = test system: experimental allergic encephalomyelitis (EAE); conditions: EAE induced by MSCH, MBP, PLP, MOG in a variety of species; cited from earlier work
[7] = test system: exacerbating-remitting multiple sclerosis; conditions: daily subcutaneous injections, phase III clinical trials; cited from earlier work
[8] = animal 18498, 20mg/feeding, day +27
[9] = capsules with cracked enteric coating, 1 mg (animal 18586) and 20 mg (animal 18639)

glatiramer acetate
proliferative responses to GPBP [1]: almost complete inhibition
IFN-γ produced in response to GPBP stimulation [2]: lower than in control groups
IL-2 produced in response to GPBP stimulation [2]: lower than in control groups
cytokine secretion response of T-cell line [3]: secreted IL-2, some IL-10 and TGFβ but not TNFα or IL-4
Cells µl ([4]; animal 18497, 1mg/feeding, day 0): few cells
Cells µl ([4]; animal 18498, 20mg/feeding, day 0): too few cells
CD4+ [4, 8]: 47
CD4+ CD45RA+ [4, 8]: 8
Cells µl [4, 8]: 29.7
Cells µl ([4]; animal 18498, 20mg/feeding, day +34): too few cells
time to death from disease manifestations [5, 9]: 2 to 3 days
protection from the disease [5, 9]: not protected from the disease
protection from the disease ([5]; intact enteric coated capsules, 1 mg, 10 mg, 20 mg (animals 18724, 18810, 18962)): fully protected from the disease
signs of EAE ([5]; intact enteric coated capsules, 1 mg, 10 mg, 20 mg, until day 60 when sacrificed): developed no signs of EAE until day 60
suppression of EAE [6]: suppress experimental allergic encephalomyelitis (EAE)
progression of disability and relapse rate [7]: slow progression of disability and reduce the relapse rate
